What all share (type): biochemical
One test concerns the target cathepsin B (Homo sapiens, UniProt P07858). The test can be described thus: Inhibitory activity assay against cathepsin B (enzyme assay). To be noted: Z-Arg-Arg-AMC 40 μM, enzyme 1 nM, pH 6.0, 90 minutes. The method in brief:
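1 nM enzyme with 40 μM Z-Arg-Arg-AMC and compound (10.0 μM down to 0.000508 μM, 10 points) in pH 6.0 buffer of 50 mM MES, 5 mM DTT, 2.5 mM EDTA, 0.005% Polysorbate 20, 10% DMSO. Fluorescence (340/460 nm) read after 90 min; IC50 by 4-parameter logistic fit.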

The target in the next test is cathepsin L (Homo sapiens, UniProt P07711). The test can be described thus: Inhibitory activity assay against cathepsin L (enzyme assay). As to conditions: Z-Phe-Arg-AMC 2 μM, enzyme 3 nM, pH 5.5, 30 minutes. The method in brief: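 Enzyme at 3 nM with 2 μM Z-Phe-Arg-AMC in 50 mM MES pH 5.5, 2.5 mM DTT, 2.5 mM EDTA, 0.005% Polysorbate 20, 10% DMSO; 30 min reaction, AMC fluorescence 340/460 nm. Ten-point series 10.0 μM to 0.000508 μM; IC50 by 4-parameter logistic fit.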
Chain of cathepsin L (P07711 114-333, species assumed): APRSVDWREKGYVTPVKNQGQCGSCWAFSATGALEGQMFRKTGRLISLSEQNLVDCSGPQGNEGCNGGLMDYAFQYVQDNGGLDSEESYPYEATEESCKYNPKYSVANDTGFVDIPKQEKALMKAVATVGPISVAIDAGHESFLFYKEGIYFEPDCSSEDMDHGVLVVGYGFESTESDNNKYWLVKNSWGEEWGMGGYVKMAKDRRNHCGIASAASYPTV

Another test concerns the target T1, cathepsin K (Homo sapiens, UniProt P43235).
T1 sequence (P43235 115-329): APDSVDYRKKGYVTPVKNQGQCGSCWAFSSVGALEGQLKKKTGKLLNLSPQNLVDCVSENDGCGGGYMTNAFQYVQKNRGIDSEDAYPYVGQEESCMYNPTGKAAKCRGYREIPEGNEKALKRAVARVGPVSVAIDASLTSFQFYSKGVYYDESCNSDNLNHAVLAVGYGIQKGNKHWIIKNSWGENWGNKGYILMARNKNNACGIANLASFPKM
In words: Inhibitory activity assay against cathepsin K (enzyme assay). To be noted: Z-Phe-Arg-AMC 10 μM, enzyme 1 nM, pH 5.5, 30 minutes. The procedure, abridged:
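Fluorogenic assay with 1 nM cathepsin K and 10 μM Z-Phe-Arg-AMC in pH 5.5 buffer (50 mM MES, 2 mM DTT, 2.5 mM EDTA, 0.01% Triton X-100, 10% DMSO). Ten compound concentrations, 10.0 to 0.000508 μM; 30 min reaction, ex 355/em 460 nm; IC50 by 4-parameter logistic fit.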

The target of the next test is cathepsin S (Homo sapiens, UniProt P25774). In words: Inhibitory activity assay against cathepsin S (enzyme assay). To be noted: Z-Phe-Arg-AMC 70 μM, enzyme 3 nM, pH 6.5, 45 minutes. The procedure, abridged:
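Cathepsin S (3 nM final) with Z-Phe-Arg-AMC substrate (70 μM final) in pH 6.5 buffer of 50 mM MES, 2.5 mM DTT, 1.0 mM EDTA, 0.001% BSA, 10% DMSO; compound 10.0 μM down to 0.000508 μM, 10 points. Fluorescence (ex 340/em 460 nm) after 45 min; IC50 by 4-parameter logistic fit.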

Where only a bound is given, the exact number is not on record here.

What is called IC50 is the concentration needed to halve the response being measured.

Chain of cathepsin S (P25774 115-331, species assumed): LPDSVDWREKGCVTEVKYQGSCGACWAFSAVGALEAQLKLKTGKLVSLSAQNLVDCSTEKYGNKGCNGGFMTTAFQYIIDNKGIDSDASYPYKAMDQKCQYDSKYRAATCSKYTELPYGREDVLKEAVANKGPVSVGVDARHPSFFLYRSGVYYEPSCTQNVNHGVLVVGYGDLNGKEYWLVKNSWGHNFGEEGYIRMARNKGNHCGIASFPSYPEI

`CS(=O)(=O)c1ccc(-c2ccc(NC(=O)NC3(c4ccnc(C#N)n4)CCCCC3)cc2)cc1` [Example 116, 1-(1-(2-cyanopyrimidin-4-yl)cyclohexyl)-3-(4′-(methylsulfonyl)-[1,1′-biphenyl]-4-yl)urea]: the 50% inhibitory concentration (IC50) on cathepsin B was more than 10000 nM; at cathepsin L it was more than 10000 nM; on cathepsin K it was 2.1 nM; at cathepsin S it was more than 10000 nM.

Consider `Cn1ncc2ccc(-c3cccc(COC(=O)NC4(c5ccnc(C#N)n5)CCCC4)c3)cc21` [Example 36, 3-(1-methyl-1H-indazol-6-yl)benzyl (1-(2-cyanopyrimidin-4-yl)cyclopentyl)carbamate], for which the half-maximal inhibitory concentration (IC50) against cathepsin B was more than 10000 nM; at cathepsin L it was more than 10000 nM; on cathepsin K, 31.9 nM; on cathepsin S, 7350 nM.

Turning to `N#Cc1nccc(C2(NC(=O)NCc3ccccc3)CCCCC2)n1` [Example 88, 1-benzyl-3-(1-(2-cyanopyrimidin-4-yl)cyclohexyl)urea], the IC50 is more than 10000 nM at cathepsin B, 7140 nM at cathepsin L, 31.6 nM on cathepsin K and more than 10000 nM against cathepsin S.

For the compound `N#Cc1nccc(C2(NC(=O)Nc3ccc(-c4ccc(C(F)(F)F)nc4)cc3)CCCCC2)n1` [Example 126, 1-(1-(2-cyanopyrimidin-4-yl)cyclohexyl)-3-(4-(6-(trifluoromethyl)pyridin-3-yl)phenyl)urea], the half-maximal inhibitory concentration (IC50) at cathepsin B was more than 10000 nM; on cathepsin L it was more than 10000 nM; at cathepsin K, 25.1 nM; against cathepsin S, 5750 nM.

For `N#Cc1nccc(C2(NC(=O)Nc3ccc(-c4ccc(S(N)(=O)=O)cc4)cc3)CCCCC2)n1` [Example 173, 4′-(3-(1-(2-cyanopyrimidin-4-yl)cyclohexyl)ureido)-[1,1′-biphenyl]-4-sulfonamide], the IC50 on cathepsin B was more than 10000 nM; on cathepsin L it was more than 10000 nM; on cathepsin K, 13.8 nM; on cathepsin S it was more than 10000 nM.

In the case of `N#Cc1nccc(C2(NC(=O)Nc3ccc(-c4cccnc4)cc3)CCCCC2)n1` [Example 128, 1-(1-(2-cyanopyrimidin-4-yl)cyclohexyl)-3-(4-(pyridin-3-yl)phenyl)urea], the IC50 against cathepsin B was more than 10000 nM; against cathepsin L, more than 10000 nM; at cathepsin K, 13.6 nM; at cathepsin S, 9060 nM.

Turning to `N#Cc1nccc(C2(NC(=O)OCc3ccc(F)cc3)CCCCC2)n1` [Example 27, 4-fluorobenzyl (1-(2-cyanopyrimidin-4-yl)cyclohexyl)carbamate], the IC50 at cathepsin B is more than 10000 nM; at cathepsin L, 895 nM; at cathepsin K it was 22.4 nM; against cathepsin S, 7780 nM.

In the case of `Cc1cccc(COC(=O)NC2(c3ccnc(C#N)n3)CCCCC2)c1` [Example 13, 3-methylbenzyl (1-(2-cyanopyrimidin-4-yl)cyclohexyl)carbamate], the IC50 at cathepsin B was more than 10000 nM; against cathepsin L, 5080 nM; on cathepsin K it was 241 nM; against cathepsin S it was more than 10000 nM.

`N#Cc1nccc(C2(NC(=O)Nc3ccc4nccnc4c3)CCCC2)n1` [Example 77, 1-(1-(2-cyanopyrimidin-4-yl)cyclopentyl)-3-(quinoxalin-6-yl)urea]: the IC50 against cathepsin B was more than 10000 nM; on cathepsin L, more than 10000 nM; at cathepsin K it was 95.1 nM; against cathepsin S, more than 10000 nM.

On to `N#Cc1nccc(C2(NC(=O)OCc3ccccc3F)CCCCC2)n1` [Example 18, 2-fluorobenzyl (1-(2-cyanopyrimidin-4-yl)cyclohexyl)carbamate], for which the IC50 against cathepsin B is more than 10000 nM; against cathepsin L, 1740 nM; on cathepsin K, 60.8 nM; against cathepsin S, 8320 nM.

For the compound `N#Cc1nccc(C2(NC(=O)Nc3ccc(C#Cc4ccc(CO)cc4)cc3)CCCCC2)n1` [Example 183, 1-(1-(2-cyanopyrimidin-4-yl)cyclohexyl)-3-(4-((4-(hydroxymethyl)phenyl)ethynyl)phenyl)urea], the IC50 was more than 10000 nM against cathepsin B, more than 10000 nM at cathepsin L, 22 nM on cathepsin K and more than 10000 nM against cathepsin S.

Regarding `N#Cc1nccc(C2(NC(=O)Nc3ccccc3)CCCCC2)n1` [Example 86, 1-(1-(2-cyanopyrimidin-4-yl)cyclohexyl)-3-phenylurea], the IC50 is more than 10000 nM on cathepsin B, 2460 nM at cathepsin L, 38.9 nM on cathepsin K and 7110 nM against cathepsin S.

`N#Cc1nccc(C2(NC(=O)Nc3cccc(-c4ccccc4)c3)CCCCC2)n1` [Example 111, 1-([1,1′-biphenyl]-3-yl)-3-(1-(2-cyanopyrimidin-4-yl)cyclohexyl)urea]: the IC50 against cathepsin B is more than 10000 nM; at cathepsin L it was more than 10000 nM; at cathepsin K, 71.5 nM; on cathepsin S it was more than 10000 nM.

Take `N#Cc1nccc(C2(NC(=O)Nc3ccc(I)c(C(F)(F)F)c3)CCCCC2)n1` [Example 136, 1-(1-(2-cyanopyrimidin-4-yl)cyclohexyl)-3-(4-iodo-3-(trifluoromethyl)phenyl)urea]: the IC50 against cathepsin B is more than 10000 nM; on cathepsin L, more than 10000 nM; on cathepsin K, 24.5 nM; against cathepsin S, more than 10000 nM.

Regarding `Cc1cccc(NC(=O)NC2(c3ccnc(C#N)n3)CCCC2)c1` [Example 38, 1-(1-(2-cyanopyrimidin-4-yl)cyclopentyl)-3-(meta-tolyl)urea], the 50% inhibitory concentration (IC50) was more than 10000 nM on cathepsin B, 8060 nM against cathepsin L, 69.6 nM on cathepsin K and more than 10000 nM on cathepsin S.

On to `COc1ccccc1COC(=O)NC1(c2ccnc(C#N)n2)CCCCC1` [Example 21, 2-methoxybenzyl (1-(2-cyanopyrimidin-4-yl)cyclohexyl)carbamate], for which the IC50 was more than 10000 nM on cathepsin B, 2860 nM against cathepsin L, 83.8 nM at cathepsin K and more than 10000 nM against cathepsin S.

On to `N#Cc1nccc(C2(NC(=O)OCc3ccc(-c4ccc(N5CCOCC5)cc4)cc3)CCCC2)n1` [Example 31, (4′-morpholino-[1,1′-biphenyl]-4-yl)methyl (1-(2-cyanopyrimidin-4-yl)cyclopentyl)carbamate], for which the concentration for half-maximal inhibition (IC50) on cathepsin B was more than 10000 nM; against cathepsin L, more than 10000 nM; at cathepsin K, 934 nM; at cathepsin S, more than 10000 nM.

With `N#Cc1nccc(C2(NC(=O)Nc3ccc4ccccc4c3)CCCC2)n1` [Example 75, 1-(1-(2-cyanopyrimidin-4-yl)cyclopentyl)-3-(naphthalen-2-yl)urea], the concentration for half-maximal inhibition (IC50) at cathepsin B was more than 10000 nM; against cathepsin L, more than 10000 nM; at cathepsin K it was 41 nM; against cathepsin S, more than 10000 nM.

Turning to `N#Cc1nccc(C2(NC(=O)Nc3ccc(-c4ccccc4)cc3)CCCCC2)n1` [Example 113, 1-([1,1′-biphenyl]-4-yl)-3-(1-(2-cyanopyrimidin-4-yl)cyclohexyl)urea], the IC50 was more than 10000 nM on cathepsin B, more than 10000 nM against cathepsin L, 12.2 nM at cathepsin K and more than 10000 nM against cathepsin S.

As to `CN(C)CCOc1ccc(-c2ccc(NC(=O)NC3(c4ccnc(C#N)n4)CCCCC3)cc2)cc1` [Example 153, 1-(1-(2-cyanopyrimidin-4-yl)cyclohexyl)-3-(4′-(2-(dimethylamino)ethoxy)-[1,1′-biphenyl]-4-yl)urea], the IC50 against cathepsin B was 4800 nM; against cathepsin L, 6720 nM; on cathepsin K, 0.2 nM; against cathepsin S it was more than 10000 nM.

(Values after patent US11299478B2, “2-cyanopyrimidin-4-yl carbamate or urea derivative or salt thereof, and pharmaceutical composition including same” (HANLIM PHARMACEUTICAL CO., LTD., priority 2018, dated 2022).)
